Experimental data from patent US20260042731A1, “(2,4-DICHLOROPHENOXY)ACETIC ACID ANALOGS” (CORTEVA AGRISCIENCE LLC, priority 2022, published 2026).
Where two headings read alike, the source gives them in different places.

Legend:
[1] = tested on: Amaranthus rudis (AMATA), tall water hemp; experiment: Postemergence herbicide evaluation, growth of Amaranthus rudis (AMATA); format: in vivo; conditions: Amaranthus tuberculatus, post-emergence, percent reduction in plant size vs untreated control, read-out: Ave. AMATA; for pest or weed control at 280 g/ha: 280 g ae/ha; for pest or weed control at 560 g/ha: 560 g ae/ha
[2] = tested on: Ambrosia artemisiifolia (AMBEL), common ragweed; experiment: Postemergence herbicide evaluation, growth of Ambrosia artemisiifolia (AMBEL); format: in vivo; conditions: Ambrosia artemisiifolia, post-emergence, percent reduction in plant size vs untreated control, read-out: AVE. AMBEL; for pest or weed control at 280 g/ha: 280 g ae/ha; for pest or weed control at 560 g/ha: 560 g ae/ha
[3] = tested on: Abutilon theophrasti (ABUTH), velvetleaf; experiment: Postemergence herbicide evaluation, growth of Abutilon theophrasti (ABUTH); format: in vivo; conditions: Abutilon theophrasti, post-emergence, percent reduction in plant size vs untreated control, read-out: AVE. ABUTH; for pest or weed control at 280 g/ha: 280 g ae/ha; for pest or weed control at 560 g/ha: 560 g ae/ha
[4] = tested on: Chenopodium album (CHEAL), common lambsquarters; experiment: Postemergence herbicide evaluation, growth of Chenopodium album (CHEAL); format: in vivo; conditions: Chenopodium album, post-emergence, percent reduction in plant size vs untreated control, read-out: Ave. CHEAL; for pest or weed control at 280 g/ha: 280 g ae/ha; for pest or weed control at 560 g/ha: 560 g ae/ha
[5] = tested on: glyphosate resistant Conyza canadensis (L.) (ERICA), horseweed; experiment: Postemergence herbicide evaluation, growth of Conyza canadensis (ERICA); format: in vivo; conditions: Erigeron canadensis, post-emergence, percent reduction in plant size vs untreated control, read-out: Ave. ERICA; for pest or weed control at 280 g/ha: 280 g ae/ha; for pest or weed control at 560 g/ha: 560 g ae/ha
[6] = Volatility of compounds measured by thermogravimetric analysis (TGA); format: physicochemical
[7] = tested on: weeds ABUTH, AMATA, AMBEL, CHEAL, ERICA; experiment: Postemergence herbicide evaluation, overall average % weed control across ABUTH, AMATA, AMBEL, CHEAL and ERICA; format: in vivo; conditions: post-emergence, average over five weeds, read-out: Overall Ave % Weed Control; for pest or weed control at 280 g/ha: 280 g ae/ha; for pest or weed control at 560 g/ha: 560 g ae/ha

## CONC(=O)COc1ccc(Cl)cc1Cl [Compound D19]
[1]; 168 h, 7 DAA
  pest or weed control at 280 g/ha: 77.5%
  pest or weed control at 560 g/ha: 90%
[1]; 336 h, 14 DAA
  pest or weed control at 280 g/ha: 90%
  pest or weed control at 560 g/ha: 93.5%
[1]; 504 h, 21 DAA
  pest or weed control at 280 g/ha: 72.5%
  pest or weed control at 560 g/ha: 75%
[2]; 168 h, 7 DAA
  pest or weed control at 280 g/ha: 82.5%
  pest or weed control at 560 g/ha: 93.5%
[2]; 336 h, 14 DAA
  pest or weed control at 280 g/ha: 82.5%
  pest or weed control at 560 g/ha: 85%
[2]; 504 h, 21 DAA
  pest or weed control at 280 g/ha: 100%
  pest or weed control at 560 g/ha: 100%
[3]; 168 h, 7 DAA
  pest or weed control at 280 g/ha: 75%
  pest or weed control at 560 g/ha: 87.5%
[3]; 336 h, 14 DAA
  pest or weed control at 280 g/ha: 89%
  pest or weed control at 560 g/ha: 98%
[3]; 504 h, 21 DAA
  pest or weed control at 280 g/ha: 98.5%
  pest or weed control at 560 g/ha: 100%
[4]; 168 h, 7 DAA
  pest or weed control at 280 g/ha: 77.5%
  pest or weed control at 560 g/ha: 85%
[4]; 336 h, 14 DAA
  pest or weed control at 280 g/ha: 94%
  pest or weed control at 560 g/ha: 95%
[4]; 504 h, 21 DAA
  pest or weed control at 280 g/ha: 96.5%
  pest or weed control at 560 g/ha: 98%
[5]; 168 h, 7 DAA
  pest or weed control at 280 g/ha: 82.5%
  pest or weed control at 560 g/ha: 80%
[5]; 336 h, 14 DAA
  pest or weed control at 280 g/ha: 98%
  pest or weed control at 560 g/ha: 100%
[5]; 504 h, 21 DAA
  pest or weed control at 280 g/ha: 98.5%
  pest or weed control at 560 g/ha: 99.5%
[6]
  TGA Data (rate of weight loss, volatility): 0.61 µg/min
[7]; 168 h, 7 DAA
  pest or weed control at 280 g/ha: 79%
  pest or weed control at 560 g/ha: 87.2%
[7]; 336 h, 14 DAA
  pest or weed control at 280 g/ha: 90.7%
  pest or weed control at 560 g/ha: 94.3%
[7]; 504 h, 21 DAA
  pest or weed control at 280 g/ha: 93.2%
  pest or weed control at 560 g/ha: 94.5%

## O=C(COc1ccc(Cl)cc1Cl)NOCCc1ccccc1 [Compound D18]
[1]; 168 h, 7 DAA
  pest or weed control at 280 g/ha: 72.5%
  pest or weed control at 560 g/ha: 96%
[1]; 336 h, 14 DAA
  pest or weed control at 280 g/ha: 87.5%
  pest or weed control at 560 g/ha: 96%
[1]; 504 h, 21 DAA
  pest or weed control at 280 g/ha: 75%
  pest or weed control at 560 g/ha: 95%
[2]; 168 h, 7 DAA
  pest or weed control at 280 g/ha: 75%
  pest or weed control at 560 g/ha: 91%
[2]; 336 h, 14 DAA
  pest or weed control at 280 g/ha: 80%
  pest or weed control at 560 g/ha: 95%
[2]; 504 h, 21 DAA
  pest or weed control at 280 g/ha: 100%
  pest or weed control at 560 g/ha: 100%
[3]; 168 h, 7 DAA
  pest or weed control at 280 g/ha: 67.5%
  pest or weed control at 560 g/ha: 72.5%
[3]; 336 h, 14 DAA
  pest or weed control at 280 g/ha: 85%
  pest or weed control at 560 g/ha: 96.5%
[3]; 504 h, 21 DAA
  pest or weed control at 280 g/ha: 100%
  pest or weed control at 560 g/ha: 99.5%
[4]; 168 h, 7 DAA
  pest or weed control at 280 g/ha: 75%
  pest or weed control at 560 g/ha: 75%
[4]; 336 h, 14 DAA
  pest or weed control at 280 g/ha: 97.5%
  pest or weed control at 560 g/ha: 92.5%
[4]; 504 h, 21 DAA
  pest or weed control at 280 g/ha: 92.5%
  pest or weed control at 560 g/ha: 100%
[5]; 168 h, 7 DAA
  pest or weed control at 280 g/ha: 85%
  pest or weed control at 560 g/ha: 85%
[5]; 336 h, 14 DAA
  pest or weed control at 280 g/ha: 99%
  pest or weed control at 560 g/ha: 98%
[5]; 504 h, 21 DAA
  pest or weed control at 280 g/ha: 100%
  pest or weed control at 560 g/ha: 98%
[6]
  TGA Data (rate of weight loss, volatility): 0.1777 µg/min
[7]; 168 h, 7 DAA
  pest or weed control at 280 g/ha: 75%
  pest or weed control at 560 g/ha: 83.9%
[7]; 336 h, 14 DAA
  pest or weed control at 280 g/ha: 89.8%
  pest or weed control at 560 g/ha: 95.6%
[7]; 504 h, 21 DAA
  pest or weed control at 280 g/ha: 93.5%
  pest or weed control at 560 g/ha: 98.5%

## O=C(COc1ccc(Cl)cc1Cl)Oc1cccnc1 [Compound E9]
[1]; 168 h, 7 DAA
  pest or weed control at 280 g/ha: 77.5%
[1]; 168 h, 660 g ae/ha, 7 DAA
  pest or weed control at 660 g/ha: 92.5%
[1]; 336 h, 14 DAA
  pest or weed control at 280 g/ha: 85%
  pest or weed control at 560 g/ha: 87.5%
[1]; 504 h, 21 DAA
  pest or weed control at 280 g/ha: 92.5%
  pest or weed control at 560 g/ha: 94%
[2]; 168 h, 7 DAA
  pest or weed control at 280 g/ha: 80%
[2]; 168 h, 660 g ae/ha, 7 DAA
  pest or weed control at 660 g/ha: 87.5%
[2]; 336 h, 14 DAA
  pest or weed control at 280 g/ha: 90%
  pest or weed control at 560 g/ha: 97.5%
[2]; 504 h, 21 DAA
  pest or weed control at 280 g/ha: 100%
  pest or weed control at 560 g/ha: 100%
[3]; 168 h, 7 DAA
  pest or weed control at 280 g/ha: 57.5%
[3]; 168 h, 660 g ae/ha, 7 DAA
  pest or weed control at 660 g/ha: 82.5%
[3]; 336 h, 14 DAA
  pest or weed control at 280 g/ha: 75%
  pest or weed control at 560 g/ha: 98%
[3]; 504 h, 21 DAA
  pest or weed control at 280 g/ha: 88.5%
  pest or weed control at 560 g/ha: 99.5%
[4]; 168 h, 7 DAA
  pest or weed control at 280 g/ha: 75%
[4]; 168 h, 660 g ae/ha, 7 DAA
  pest or weed control at 660 g/ha: 80%
[4]; 336 h, 14 DAA
  pest or weed control at 280 g/ha: 96.5%
  pest or weed control at 560 g/ha: 99%
[4]; 504 h, 21 DAA
  pest or weed control at 280 g/ha: 90%
  pest or weed control at 560 g/ha: 93.5%
[5]; 168 h, 7 DAA
  pest or weed control at 280 g/ha: 82.5%
[5]; 168 h, 660 g ae/ha, 7 DAA
  pest or weed control at 660 g/ha: 77.5%
[5]; 336 h, 14 DAA
  pest or weed control at 280 g/ha: 99.5%
  pest or weed control at 560 g/ha: 100%
[5]; 504 h, 21 DAA
  pest or weed control at 280 g/ha: 99%
  pest or weed control at 560 g/ha: 100%
[6]
  TGA Data (rate of weight loss, volatility): 0.6748 µg/min
[7]; 168 h, 7 DAA
  pest or weed control at 280 g/ha: 74.5%
[7]; 168 h, 660 g ae/ha, 7 DAA
  pest or weed control at 660 g/ha: 84%
[7]; 336 h, 14 DAA
  pest or weed control at 280 g/ha: 89.2%
  pest or weed control at 560 g/ha: 96.4%
[7]; 504 h, 21 DAA
  pest or weed control at 280 g/ha: 94%
  pest or weed control at 560 g/ha: 97.4%
